Assay results published in ChEMBL document CHEMBL1201862, “PubChem BioAssay data set” (2004).
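Five compound concentrations were applied to cells in 96-well plates for 48 hours; endpoints were derived by simple linear interpolation of the resulting dose-response curve. GI50 is the concentration that inhibits growth by half.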 Calls of active or inactive are those of the source. Rule as the data show it: active = GI50 up to about 1.1 µM and inactive = higher.

Experiments:
Assay in all cases: NCI anticancer screen, dose series, 48 h
SR = test system: SR
UACC-257 = test system: UACC-257
SN12C = test system: SN12C
NCI-H23 = test system: NCI-H23
ACHN = test system: ACHN
UO-31 = test system: UO-31
HOP-92 = test system: HOP-92
A498 = test system: A498
HOP-62 = test system: HOP-62
RXF 393 = test system: RXF 393
HL-60 = test system: HL-60
OVCAR-4 = test system: OVCAR-4
SF-295 = test system: SF-295
SF-268 = test system: SF-268
SNB-75 = test system: SNB-75
U-251 = test system: U-251
MDA-MB-231 = test system: MDA-MB-231
MDA-N = test system: MDA-N
MDA-MB-435 = test system: MDA-MB-435

Measured: GI50

O=CN/C=C/c1ccccc1
inactive: SR > 94.8 µM | UACC-257 > 100 µM | SN12C > 100 µM | NCI-H23 > 100 µM | ACHN > 100 µM | UO-31 > 87.3 µM | HOP-92 > 100 µM | A498 > 100 µM | HOP-62 > 100 µM | RXF 393 > 100 µM | HL-60 > 100 µM | OVCAR-4 > 100 µM | SF-295 > 100 µM | SF-268 > 100 µM | SNB-75 > 100 µM | U-251 > 100 µM

O=C(CC1(O)C(=O)Nc2ccccc21)c1ccc(O)cc1 (stereo not drawn)
inactive: SR > 100 µM | UACC-257 > 100 µM | SN12C > 100 µM | NCI-H23 > 100 µM | ACHN > 100 µM | UO-31 > 100 µM | HOP-92 > 100 µM | A498 > 100 µM | HOP-62 > 100 µM | RXF 393 > 100 µM | HL-60 > 100 µM | OVCAR-4 > 100 µM | SF-295 > 100 µM | SF-268 > 100 µM | SNB-75 69 µM | U-251 > 100 µM

CC1=NN(C(=O)c2ccc([N+](=O)[O-])cc2)C(=O)C1/N=N/c1ccccc1C(=O)O (stereo not drawn)
inactive: SR > 10 µM | UACC-257 > 100 µM | SN12C > 100 µM | NCI-H23 > 100 µM | ACHN > 100 µM | UO-31 > 100 µM | HOP-92 45 µM | A498 > 100 µM | RXF 393 > 100 µM | HL-60 90.2 µM | SF-295 > 100 µM | SF-268 > 100 µM | SNB-75 51.2 µM | U-251 99.1 µM

CC(C)NC(=O)OCc1c(COC(=O)NC(C)C)c(-c2cc[n+](COC(=O)CC(C)(C)C)cc2)n2c1CCC2
inactive: MDA-MB-231 > 100 µM | SR 42.4 µM | UACC-257 > 100 µM | SN12C > 100 µM | NCI-H23 > 100 µM | UO-31 > 100 µM | HOP-92 > 100 µM | A498 > 100 µM | HOP-62 > 100 µM | RXF 393 > 100 µM | HL-60 > 100 µM | OVCAR-4 > 100 µM | MDA-N > 100 µM | SF-295 > 100 µM | U-251 > 100 µM

Cc1cccc(/C=N/N=C(\N)NO)n1
inactive: SR 42.4 µM | UACC-257 > 100 µM | SN12C > 100 µM | NCI-H23 > 100 µM | ACHN 27.3 µM | HOP-92 26.1 µM | A498 > 100 µM | HOP-62 17.1 µM | RXF 393 > 100 µM | HL-60 32.4 µM | OVCAR-4 28.2 µM | SF-295 22.8 µM | SF-268 16.1 µM | SNB-75 20.5 µM | U-251 78.7 µM

C/C=C1/CCC2c3[nH]c4ccccc4c3CCN2C1 (stereo not drawn)
inactive: SR > 100 µM | UACC-257 64.9 µM | SN12C > 100 µM | NCI-H23 > 100 µM | ACHN > 100 µM | UO-31 > 100 µM | HOP-92 24.2 µM | A498 > 100 µM | HOP-62 > 100 µM | RXF 393 > 100 µM | HL-60 58.2 µM | OVCAR-4 42 µM | SF-295 > 100 µM | SF-268 > 100 µM | SNB-75 66.4 µM | U-251 > 100 µM

O=c1nc(-c2ccccc2)c2c3c(cccn13)CCC2
inactive: SR > 100 µM | UACC-257 > 100 µM | SN12C > 100 µM | NCI-H23 > 100 µM | ACHN > 100 µM | UO-31 73.6 µM | HOP-92 > 100 µM | A498 92 µM | HOP-62 > 100 µM | RXF 393 > 100 µM | HL-60 > 100 µM | OVCAR-4 > 100 µM | SF-295 > 100 µM | SF-268 > 100 µM | SNB-75 21.8 µM | U-251 > 100 µM

Cc1cc(-c2ccccc2)nc(Nc2cc3ccccc3[nH]2)n1
inactive: SR > 100 µM | UACC-257 > 100 µM | SN12C > 100 µM | NCI-H23 > 100 µM | ACHN > 100 µM | UO-31 > 100 µM | HOP-92 22.2 µM | A498 > 100 µM | HOP-62 > 100 µM | HL-60 > 100 µM | OVCAR-4 > 100 µM | SF-295 > 100 µM | SF-268 > 100 µM | U-251 > 100 µM

O=C(O/N=C1/CCC/C1=C\c1ccccc1)c1ccc(Cl)cc1
inactive: SR > 82.4 µM | UACC-257 > 100 µM | SN12C > 58.6 µM | NCI-H23 50.8 µM | ACHN 60.5 µM | UO-31 58.9 µM | HOP-92 64.3 µM | A498 > 60.4 µM | HOP-62 > 54.3 µM | RXF 393 18 µM | HL-60 > 56.1 µM | OVCAR-4 25.8 µM | SF-295 42 µM | SF-268 > 77.4 µM | SNB-75 21.7 µM | U-251 46.6 µM

Nc1ccccc1/C(O)=C1/CCOC1=O
inactive: SR > 100 µM | UACC-257 > 100 µM | SN12C > 100 µM | NCI-H23 > 100 µM | ACHN > 100 µM | UO-31 > 100 µM | HOP-92 > 100 µM | A498 > 100 µM | HOP-62 > 100 µM | HL-60 > 100 µM | OVCAR-4 > 100 µM | SF-295 > 100 µM | SF-268 > 100 µM | SNB-75 > 100 µM | U-251 > 100 µM

COc1cc(C(C)O)c[n+](Cc2ccccc2)c1 (stereo not drawn)
inactive: SR > 100 µM | UACC-257 > 100 µM | SN12C > 40.5 µM | NCI-H23 > 100 µM | ACHN > 100 µM | UO-31 > 100 µM | HOP-92 > 100 µM | A498 > 100 µM | HOP-62 > 100 µM | RXF 393 > 100 µM | HL-60 > 100 µM | OVCAR-4 > 100 µM | SF-295 > 100 µM | SF-268 > 100 µM | SNB-75 > 100 µM | U-251 > 100 µM

COc1ccccc1N=C(S)Nc1ccccn1
inactive: MDA-MB-231 > 100 µM | MDA-MB-435 > 100 µM | SR > 100 µM | UACC-257 > 100 µM | UO-31 > 100 µM | A498 > 100 µM | HOP-62 63.4 µM | RXF 393 59 µM | HL-60 > 100 µM | OVCAR-4 > 100 µM | SF-295 66.2 µM | SF-268 45.6 µM | SNB-75 36.7 µM | U-251 58.5 µM

O=[N+]([O-])c1nccn1COCCO
inactive: SR > 100 µM | UACC-257 > 100 µM | SN12C > 100 µM | NCI-H23 > 100 µM | ACHN > 100 µM | HOP-92 > 100 µM | A498 > 100 µM | HOP-62 > 100 µM | RXF 393 > 100 µM | HL-60 > 100 µM | OVCAR-4 > 100 µM | SF-295 > 100 µM | SF-268 > 100 µM | SNB-75 > 100 µM | U-251 > 100 µM
